Measured values as given in US20250381412A1, “METHODS AND SYSTEMS FOR NEUROMODULATION” (Cardionomix, Inc., priority 2022, published 2025).

Tested on: normal, non-HF ovine model
Assay: Heartbeat-by-heartbeat changes in right and left ventricle contractility (max dP/dt as surrogate) after an injection
Format: in vivo
Conditions: pressure max (dP/dt) used as surrogate for contractility, after injection (calcium: 5 mL)
Excerpt: The correlation was a heartbeat-by-heartbeat analysis. Pressure measurements, taken by a Millar catheter comprising a MEMS pressure sensor, in units of max (dP/dt) was used as a surrogate for contractility.
The first change, a dobutamine injection, provided a very high contractility increase greater than 500%. The average correlation between right ventricle contractility and left ventricle contractility was very good at 0.91, where 1.00 is a perfect correlation. Accordingly, if a subject is given a dobutamine injection, measuring changes to right ventricle contractility can provide accurate information about changes to left ventricle contractility. The first change was repeated three times.
The second change, calcium injection at 5 mL, provided a contractility increase of about 20%. […] The average correlation between right […] contractility and left ventricle contractility using a Millar (MEMS) sensor on a catheter was very good at 0.91. The average correlation between right ventricle contractility and left ventricle contractility using a fluid-filled lumen of a Swan-Ganz catheter in communication with an external pressure sensor was also very good at 0.87. Accordingly, under certain circumstances such as measurement of an animal (normal, non-HF ovine model) model, if a subject is given a calcium injection, measuring changes to right ventricle contractility with a MEMS sensor or a fluid filled lumen can provide accurate information about changes to left ventricle contractility.

Q: How did the “Contractility % Increase” value turn out when [Ca+2] [Calcium, calcium] was run?
A: ~20%

Q: What about the “Contractility % Increase” value (listed as calcium) of the same compound?
A: about 20%

Q: CC(CCc1ccc(O)cc1)NCCc1ccc(O)c(O)c1 (stereo not shown) [Dobutamine Injection, dobutamine] was tested. Which “Contractility % Increase” value did it give?
A: >500%

Q: And the “Contractility % Increase” value (listed as dobutamine)?
A: greater than 500%
